Reference: patent US12371454B2, “Cyclic peptide compound having Kras inhibitory action” (priority 2019, dated 2025)
Starred links: 1 amine or outer side, 2 acyl side, 3 side chain; linkers in the order of their positions; H or OH if unused. Positions of bridges follow the written chain, without caps; N, C: chain ends. Non-standard residues stand in square brackets, D forms with d. Residues, ends and D or L forms follow the SMILES beside them. *: point of attachment. hPhe(3-Cl-4-CF3) = N[C@@H](CCc1ccc(C(F)(F)F)c(Cl)c1)C(=O)O; NMeDab(N,N-(CH2CF2CH2)) = CN[C@@H](CCN1CC(F)(F)C1)C(=O)O; X12 = CN([C@@H](Cc1ccc(C(F)(F)F)nc1)C(=O)[*:2])[*:1]; X17 = Cc1cncc(C[C@@H](C(=O)[*:2])N(C)[*:1])c1; NMePhe(3-Br) = CN[C@@H](Cc1cccc(Br)c1)C(=O)O; NMePhe(4-Cl) = CN[C@@H](Cc1ccc(Cl)cc1)C(=O)O; NMePhe(4-Me) = CN[C@@H](Cc1ccc(C)cc1)C(=O)O; NMedβ3hAla = C[C@H](CC(=O)[*:2])N(C)[*:1]; Abu(4,4,4-F3) = N[C@@H](CC(F)(F)F)C(=O)O; NMeAla(cPent) = CN[C@@H](CC1CCCC1)C(=O)O; NMeGly(cPent) = CN[C@H](C(=O)O)C1CCCC1; NMeCha = CN[C@@H](CC1CCCCC1)C(=O)O; NMeGly(cPr) = CN[C@H](C(=O)O)C1CC1; NMeChg = CN[C@H](C(=O)O)C1CCCCC1; NMeI = CC[C@H](C)[C@H](NC)C(=O)O; NMeD = CN[C@@H](CC(=O)O)C(=O)O; NMeL = CN[C@@H](CC(C)C)C(=O)O; NMeV = CN[C@H](C(=O)O)C(C)C; d(β3hA) = C[C@@H](N)CC(=O)O; dPip = O=C(O)[C@H]1CCCCN1; NMeA = CN[C@@H](C)C(=O)O; Piperidide = C1CCN(*)CC1; Ac5c = NC1(C(=O)O)CCCC1; Aze = O=C(O)[C@@H]1CCN1; Ac3c = NC1(C(=O)O)CC1; Sar = CNCC(=O)O

Target: T1, Kras and SOS1 (biotin-tagged human Kras loaded with GDP, His-tagged human SOS1) (Homo sapiens, UniProt P01116, G12D)
T1 construct: made in house; host or cells: E. coli (stated for Kras only)
T1 sequence (P01116 1-188 isoform P01116-2 G12D): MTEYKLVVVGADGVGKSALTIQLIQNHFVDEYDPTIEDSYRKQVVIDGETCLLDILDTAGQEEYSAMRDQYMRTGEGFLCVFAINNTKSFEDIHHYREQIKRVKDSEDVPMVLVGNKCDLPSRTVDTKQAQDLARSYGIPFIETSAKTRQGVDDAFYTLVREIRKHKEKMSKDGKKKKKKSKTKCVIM
Assay: Protein-protein interaction inhibition between Kras and SOS1 (KrasGl2D-SOS PPI) using AlphaScreen
Type: binding
Details: AlphaScreen; biotin-tagged human Kras loaded with GDP, His-tagged human SOS1; read-out: KRAS G12D-SOS PPI IC50
In short: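 Binding between SOS1 and Kras is detected as bead-proximity luminescence: illuminate Ni-conjugated donors (680 nm), collect 520-620 nm emission from streptavidin-conjugated acceptors; Kras carries biotin and GDP loaded after purification, SOS1 carries a His tag.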

Compound | IC50 [nM]
CC[C@H](C)[C@@H]1NC(=O)[C@H](CC(C)C)N(C)C(=O)C[C@@H](C)NC(=O)[C@H](C2CC2)N(C)C(=O)C2(CCCC2)NC(=O)[C@@H]2CCCN2C(=O)[C@H](CCc2ccc(C(F)(F)F)c(Cl)c2)NC(=O)CN(C)C(=O)[C@H](CC2CCCCC2)N(C)C(=O)CN(C)C(=O)CN(C)C1=O [Compound 14] (cyclo([Ac5c][NMeGly(cPr)][d(β3hA)][NMeL]I[Sar][Sar][NMeCha][Sar][hPhe(3-Cl-4-CF3)]P)) | 110
CC[C@H](C)[C@@H]1NC(=O)[C@H](CC(C)C)N(C)C(=O)C[C@@H](C(=O)N2CCCCC2)N(C)C(=O)[C@H](C2CCCCC2)N(C)C(=O)C2(CCCC2)NC(=O)[C@H](Cc2ccc(C(F)(F)F)nc2)N(C)C(=O)[C@H](CCc2ccc(C(F)(F)F)c(Cl)c2)NC(=O)CN(C)C(=O)[C@H](CC2CCCCC2)N(C)C(=O)[C@@H]2CCN2C(=O)CN(C)C1=O [Compound 6] ([NMeL]I[Sar][Aze][NMeCha][Sar][hPhe(3-Cl-4-CF3)][X12][Ac5c][NMeChg][NMeD]-Piperidide; lactam N-11) | 13
CC[C@H](C)[C@@H]1NC(=O)[C@H](CC(C)C)N(C)C(=O)C[C@@H](C)NC(=O)[C@H](C(C)C)N(C)C(=O)C2(CCCC2)NC(=O)[C@@H]2CCCN2C(=O)[C@H](CCc2ccc(C(F)(F)F)c(Cl)c2)NC(=O)CN(C)C(=O)[C@H](Cc2cccc(Br)c2)N(C)C(=O)CN(C)C(=O)CN(C)C1=O [Compound 1587] (cyclo([Ac5c][NMeV][d(β3hA)][NMeL]I[Sar][Sar][NMePhe(3-Br)][Sar][hPhe(3-Cl-4-CF3)]P)) | 31
CC[C@H](C)[C@@H]1NC(=O)[C@H](CC(C)C)N(C)C(=O)C[C@@H](C(=O)N2CCCCC2)N(C)C(=O)[C@H](C2CCCCC2)N(C)C(=O)C2(CCCC2)NC(=O)[C@H](Cc2cncc(C)c2)N(C)C(=O)[C@H](CCc2ccc(C(F)(F)F)c(Cl)c2)NC(=O)CN(C)C(=O)[C@H](CC2CCCCC2)N(C)C(=O)[C@@H]2CCN2C(=O)CN(C)C1=O [Compound 477] ([NMeL]I[Sar][Aze][NMeCha][Sar][hPhe(3-Cl-4-CF3)][X17][Ac5c][NMeChg][NMeD]-Piperidide; lactam N-11) | 4.3
CC[C@H](C)[C@@H]1NC(=O)[C@H](C)N(C)C(=O)C[C@@H](C(=O)N2CCCCC2)N(C)C(=O)[C@H](C(C)C)N(C)C(=O)[C@H](CC(F)(F)F)NC(=O)[C@H](CCN2CC(F)(F)C2)N(C)C(=O)[C@H](CCc2ccc(C(F)(F)F)c(Cl)c2)NC(=O)CN(C)C(=O)[C@H](CC2CCCCC2)N(C)C(=O)CN(C)C(=O)CN(C)C1=O [Compound 1104] ([NMeA]I[Sar][Sar][NMeCha][Sar][hPhe(3-Cl-4-CF3)][NMeDab(N,N-(CH2CF2CH2))][Abu(4,4,4-F3)][NMeV][NMeD]-Piperidide; lactam N-11) | 11
CC[C@H](C)[C@@H]1NC(=O)[C@H](CC(C)C)N(C)C(=O)C[C@@H](C)N(C)C(=O)[C@H](C(C)C)N(C)C(=O)C2(CC2)NC(=O)[C@@H]2CCCN2C(=O)[C@H](CCc2ccc(C(F)(F)F)c(Cl)c2)NC(=O)CN(C)C(=O)[C@H](CC2CCCCC2)N(C)C(=O)CN(C)C(=O)CN(C)C1=O [Compound 268] (cyclo([Ac3c][NMeV][NMedβ3hAla][NMeL]I[Sar][Sar][NMeCha][Sar][hPhe(3-Cl-4-CF3)]P)) | 18
CC[C@H](C)[C@@H]1NC(=O)[C@H](C)N(C)C(=O)C[C@@H](C)NC(=O)[C@H](C(C)C)N(C)C(=O)C2(CCCC2)NC(=O)[C@@H]2CCCN2C(=O)[C@H](CCc2ccc(C(F)(F)F)c(Cl)c2)NC(=O)[C@H]2CCCCN2C(=O)[C@H](CC2CCCCC2)N(C)C(=O)CN(C)C(=O)CN(C)C1=O [Compound 746] (cyclo([Ac5c][NMeV][d(β3hA)][NMeA]I[Sar][Sar][NMeCha][dPip][hPhe(3-Cl-4-CF3)]P)) | 130
CC[C@H](C)[C@@H]1NC(=O)[C@H](CC2CCCC2)N(C)C(=O)C[C@@H](C(=O)N(C)C)N(C)C(=O)[C@H]([C@@H](C)CC)N(C)C(=O)C2(CCCC2)NC(=O)[C@@H]2CCCN2C(=O)[C@H](CCc2ccc(C(F)(F)F)c(Cl)c2)NC(=O)CN(C)C(=O)[C@H](Cc2ccc(C)cc2)N(C)C(=O)[C@@H]2CCN2C(=O)[C@H](C)NC1=O [Compound 1141] ([NMeAla(cPent)]IA[Aze][NMePhe(4-Me)][Sar][hPhe(3-Cl-4-CF3)]P[Ac5c][NMeI][NMeD]-NMe2; lactam N-11) | 0.97
CC[C@H](C)[C@@H]1NC(=O)[C@H](CC(C)C)N(C)C(=O)C[C@@H](C(=O)N(C)C)N(C)C(=O)[C@H](C2CCCC2)N(C)C(=O)C2(CCCC2)NC(=O)[C@H](Cc2ccc(Cl)cc2)N(C)C(=O)[C@H](CCc2ccc(C(F)(F)F)c(Cl)c2)NC(=O)CN(C)C(=O)[C@H](CC2CCCCC2)N(C)C(=O)[C@@H]2CCN2C(=O)[C@H](C)N(C)C1=O [Compound 1063] ([NMeL]I[NMeA][Aze][NMeCha][Sar][hPhe(3-Cl-4-CF3)][NMePhe(4-Cl)][Ac5c][NMeGly(cPent)][NMeD]-NMe2; lactam N-11) | 43
